Data from the supplement of paper PMC10307832.

How the values were obtained:
Experiment in all cases: relative viability (nuclei count vs DMSO), 5 days (fraction); higher = more cells survive
Cediranib + Pictilisib = compound: COc1cc2c(Oc3ccc4[nH]c(C)cc4c3F)ncnc2cc1OCCCN1CCCC1 [Cediranib] + CS(=O)(=O)N1CCN(Cc2cc3nc(-c4cccc5[nH]ncc45)nc(N4CCOCC4)c3s2)CC1 [Pictilisib] (partner 1 µM)
Method in brief: (§1)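 Lung cancer cell lines in 1536-well plates got either a single drug or a fixed anchor-drug dose together with five library-drug doses (not always all listed) in √10 steps, by pin tool, on the day after seeding. Nuclei were counted after 5 days, and relative viability is the treated-to-vehicle ratio of nuclei counts. Values are medians of duplicate plates.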

Decitabine + Pemetrexed = compound: Nc1ncn([C@H]2C[C@H](O)[C@@H](CO)O2)c(=O)n1 [Decitabine] + Nc1nc2[nH]cc(CCc3ccc(C(=O)N[C@@H](CCC(=O)O)C(=O)O)cc3)c2c(=O)[nH]1 [Pemetrexed] (partner 0.2 µM)
Method in brief: as §1

[1] = compound: O=C(C[C@H]1NCCC[C@@H]1O)Cn1cnc2cc(Br)c(Cl)cc2c1=O (racemic) [Halofuginone] + CC(C)C[C@H](NC(=O)[C@H](Cc1ccccc1)NC(=O)c1cnccn1)B(O)O [Bortezomib] (partner 0.002 µM)
Method in brief: as §1

[2] = compound: O=C(C[C@H]1NCCC[C@@H]1O)Cn1cnc2cc(Br)c(Cl)cc2c1=O (racemic) [Halofuginone] + Cc1cc(Nc2cc(N3CCN(C)CC3)nc(Sc3ccc(NC(=O)C4CC4)cc3)n2)n[nH]1 [Tozasertib] (partner 0.1 µM)
Method in brief: as §1

Row | Cell Line | relative viability (Cediranib + Pictilisib; first compound 0.04 µM) | relative viability (Cediranib + Pictilisib; first compound 0.1265 µM) | relative viability (Cediranib + Pictilisib; first compound 0.4 µM) | relative viability (Cediranib + Pictilisib; first compound 1.265 µM) | relative viability (Cediranib + Pictilisib; first compound 4 µM) | relative viability (Decitabine + Pemetrexed; first compound 0.1265 µM) | relative viability (Decitabine + Pemetrexed; first compound 0.4 µM) | relative viability (Decitabine + Pemetrexed; first compound 1.265 µM) | relative viability (Decitabine + Pemetrexed; first compound 4 µM) | relative viability ([1]; first compound 0.001 µM) | relative viability ([1]; first compound 0.003162 µM) | relative viability ([1]; first compound 0.01 µM) | relative viability ([1]; first compound 0.03162 µM) | relative viability ([1]; first compound 0.1 µM) | relative viability ([2]; first compound 0.001 µM) | relative viability ([2]; first compound 0.003162 µM) | relative viability ([2]; first compound 0.01 µM) | relative viability ([2]; first compound 0.03162 µM) | relative viability ([2]; first compound 0.1 µM) | relative viability (Decitabine + Pemetrexed; first compound 0.04 µM)
1 | EMC-BAC-2 | 0.568 | 0.54 | 0.538 | 0.443 | 0.555 | 0.407 | 0.412 | 0.36 | 0.354 | 1.1 | 1.09 | 1.08 | 1.02 | 0.986 | 0.329 | 0.248 | 0.276 | 0.242 | 0.162 | –
2 | NCI-H1734 | 0.457 | 0.541 | 0.54 | 0.365 | 0.47 | 0.323 | 0.293 | 0.262 | 0.284 | 1.14 | 0.919 | 0.939 | 0.814 | 0.632 | 0.226 | 0.267 | 0.278 | 0.291 | 0.251 | 0.345
3 | HOP-62 | 0.813 | – | 0.578 | 0.413 | 1.16 | 0.31 | 0.205 | 0.186 | 0.183 | 0.679 | 0.702 | 0.62 | 0.632 | 0.522 | 0.445 | 0.406 | 0.386 | 0.32 | 0.231 | 0.283
4 | SW 1573 | 0.544 | 0.486 | 0.428 | 0.474 | 0.486 | 0.844 | 0.87 | 0.494 | 0.323 | 1.03 | 1.02 | 1.15 | 0.653 | 0.227 | 0.242 | 0.192 | 0.111 | 0.129 | 0.121 | 0.812
5 | SK-LU-1 | 0.632 | 0.796 | 0.54 | 0.497 | 0.498 | 0.754 | 0.406 | 0.513 | 0.49 | 1.28 | 0.931 | 0.955 | 1.31 | 0.821 | 0.367 | 0.381 | 0.34 | 0.313 | 0.171 | 0.826
6 | NCI-H23 | 0.472 | – | 0.533 | 0.345 | 0.569 | 0.546 | 0.322 | 0.294 | 0.272 | 1 | 1.24 | 1.02 | 0.947 | 0.494 | 0.387 | 0.399 | 0.383 | 0.387 | 0.265 | 0.572
7 | NCI-H1355 | 0.392 | 0.273 | 0.41 | 0.263 | 0.476 | 0.513 | 0.38 | 0.323 | 0.314 | 1.13 | 1.19 | 1.18 | 1.24 | 0.951 | 0.667 | 0.533 | 0.538 | 0.527 | 0.488 | 0.701
8 | COR-L23 | 0.75 | 0.821 | 0.775 | 0.501 | 0.783 | 0.207 | 0.18 | 0.178 | 0.196 | 1.15 | 1.1 | 0.963 | 0.965 | 0.184 | 0.249 | 0.218 | 0.198 | 0.153 | 0.106 | 0.198
9 | NCI-H2023 | 0.269 | 0.101 | 0.226 | 0.193 | 0.236 | 0.175 | 0.144 | 0.126 | 0.115 | 0.981 | 1.07 | 0.957 | 0.421 | 0.0849 | 0.46 | 0.294 | 0.399 | 0.178 | 0.134 | 0.14
10 | A-427 | 0.716 | – | 0.608 | 0.573 | 0.707 | 0.779 | 0.466 | 0.474 | 0.474 | 1 | 0.869 | 1 | 0.954 | 0.932 | 0.186 | 0.225 | 0.224 | 0.198 | 0.192 | 0.847
11 | NCI-H596 | 0.458 | 0.493 | 0.348 | 0.37 | 0.241 | 0.456 | 0.338 | 0.44 | 0.484 | 1 | 1.01 | 0.934 | 1.01 | 0.698 | 1.04 | 0.871 | 0.953 | 0.543 | 0.303 | 0.582
12 | LU99A | 0.354 | – | 0.314 | 0.276 | 0.36 | 0.157 | 0.182 | 0.202 | 0.167 | 1.15 | 1.1 | 1.07 | 1.14 | 0.8 | 0.277 | 0.295 | 0.271 | 0.296 | 0.36 | 0.149
13 | NCI-H2009 | 0.769 | 0.325 | 0.644 | 0.639 | 0.822 | 0.727 | 0.439 | 0.357 | 0.341 | 1.07 | 1.28 | 0.95 | 0.799 | 0.32 | 0.897 | 0.754 | 0.746 | 0.659 | 0.366 | 0.902
